Measurements: ChEMBL document CHEMBL3045463, “Cross-resistance study and biochemical mechanisms of thiamethoxam resistance in B-biotype Bemisia tabaci (Hemiptera: Aleyrodidae)” (2010)
Values after ≈ are worked out from the molar mass of the structure shown.

Legend:
Type in all cases: functional
[1] = tested on: Bemisia tabaci; assay: Cross resistant, ratio of LC50 for B-biotype thiamethoxam-resistant Bemisia tabaci (sweet potato whitefly) to LC50 for B-biotype thiamethoxam-sensitive Bemisia tabaci (sweet potato whitefly)
[2] = tested on: Bemisia tabaci; assay: Insecticidal activity against B-biotype thiamethoxam-resistant Bemisia tabaci (sweet potato whitefly) in cabbage leaf assessed as mortality after 48 hr by leaf disk assay; conditions: foliar
[3] = tested on: Bemisia tabaci; assay: Insecticidal activity against B-biotype thiamethoxam-sensitive Bemisia tabaci (sweet potato whitefly) in cabbage leaf assessed as mortality after 48 hr by leaf disk assay; conditions: foliar
[4] = tested on: Bemisia tabaci; assay: Synergism ratio, Ratio of LC50 for B-biotype thiamethoxam-resistant Bemisia tabaci (sweet potato whitefly) to LC50 for B-biotype thiamethoxam-resistant Bemisia tabaci (sweet potato whitefly) in presence of diethylmaleate
[5] = tested on: Bemisia tabaci; assay: Synergism ratio, Ratio of LC50 for B-biotype thiamethoxam-resistant Bemisia tabaci (sweet potato whitefly) to LC50 for B-biotype thiamethoxam-resistant Bemisia tabaci (sweet potato whitefly) in presence of triphenyl phosphate
[6] = tested on: Bemisia tabaci; assay: Synergism ratio, Ratio of LC50 for B-biotype thiamethoxam-resistant Bemisia tabaci (sweet potato whitefly) to LC50 for B-biotype thiamethoxam-resistant Bemisia tabaci (sweet potato whitefly) in presence of piperonyl butoxide
[7] = tested on: Bemisia tabaci; assay: Synergism ratio, Ratio of LC50 for B-biotype thiamethoxam-sensitive Bemisia tabaci (sweet potato whitefly) to LC50 for B-biotype thiamethoxam-sensitive Bemisia tabaci (sweet potato whitefly) in presence of diethylmaleate
[8] = tested on: Bemisia tabaci; assay: Synergism ratio, Ratio of LC50 for B-biotype thiamethoxam-sensitive Bemisia tabaci (sweet potato whitefly) to LC50 for B-biotype thiamethoxam-sensitive Bemisia tabaci (sweet potato whitefly) in presence of triphenyl phosphate
[9] = tested on: Bemisia tabaci; assay: Synergism ratio, Ratio of LC50 for B-biotype thiamethoxam-sensitive Bemisia tabaci (sweet potato whitefly) to LC50 for B-biotype thiamethoxam-sensitive Bemisia tabaci (sweet potato whitefly) in presence of piperonyl butoxide
[10] = tested on: Bemisia tabaci; assay: Insecticidal activity against B-biotype thiamethoxam-resistant Bemisia tabaci (sweet potato whitefly) in cabbage leaf assessed as mortality after 48 hr by leaf disk assay in presence of diethylmaleate; conditions: foliar
[11] = tested on: Bemisia tabaci; assay: Insecticidal activity against B-biotype thiamethoxam-resistant Bemisia tabaci (sweet potato whitefly) in cabbage leaf assessed as mortality after 48 hr by leaf disk assay in presence of triphenyl phosphate; conditions: foliar
[12] = tested on: Bemisia tabaci; assay: Insecticidal activity against B-biotype thiamethoxam-resistant Bemisia tabaci (sweet potato whitefly) in cabbage leaf assessed as mortality after 48 hr by leaf disk assay in presence of piperonyl butoxide; conditions: foliar
[13] = tested on: Bemisia tabaci; assay: Insecticidal activity against B-biotype thiamethoxam-sensitive Bemisia tabaci (sweet potato whitefly) in cabbage leaf assessed as mortality after 48 hr by leaf disk assay in presence of diethylmaleate; conditions: foliar
[14] = tested on: Bemisia tabaci; assay: Insecticidal activity against B-biotype thiamethoxam-sensitive Bemisia tabaci (sweet potato whitefly) in cabbage leaf assessed as mortality after 48 hr by leaf disk assay in presence of triphenyl phosphate; conditions: foliar
[15] = tested on: Bemisia tabaci; assay: Insecticidal activity against B-biotype thiamethoxam-sensitive Bemisia tabaci (sweet potato whitefly) in cabbage leaf assessed as mortality after 48 hr by leaf disk assay in presence of piperonyl butoxide; conditions: foliar
[16] = tested on: Bemisia tabaci; assay: Resistant ratio, ratio of LC50 for T33 generation of B-biotype Bemisia tabaci (sweet potato whitefly) to LC50 for B-biotype Bemisia tabaci (sweet potato whitefly)
[17] = tested on: Bemisia tabaci; assay: Resistant ratio, ratio of LC50 for T30 generation of B-biotype Bemisia tabaci (sweet potato whitefly) to LC50 for B-biotype Bemisia tabaci (sweet potato whitefly)
[18] = tested on: Bemisia tabaci; assay: Insecticidal activity against B-biotype Bemisia tabaci (sweet potato whitefly) in cabbage leaf assessed as mortality after 48 hr by leaf disk assay; conditions: foliar
[19] = tested on: Bemisia tabaci; assay: Insecticidal activity against T17 generation of B-biotype Bemisia tabaci (sweet potato whitefly) in cabbage leaf assessed as mortality after 48 hr by leaf disk assay; conditions: foliar
[20] = tested on: Bemisia tabaci; assay: Insecticidal activity against T28 generation of B-biotype Bemisia tabaci (sweet potato whitefly) in cabbage leaf assessed as mortality after 48 hr by leaf disk assay; conditions: foliar
[21] = tested on: Bemisia tabaci; assay: Insecticidal activity against T30 generation of B-biotype Bemisia tabaci (sweet potato whitefly) in cabbage leaf assessed as mortality after 48 hr by leaf disk assay; conditions: foliar
[22] = tested on: Bemisia tabaci; assay: Insecticidal activity against T33 generation of B-biotype Bemisia tabaci (sweet potato whitefly) in cabbage leaf assessed as mortality after 48 hr by leaf disk assay; conditions: foliar
[23] = tested on: Bemisia tabaci; assay: Resistant ratio, ratio of LC50 for T17 generation of B-biotype Bemisia tabaci (sweet potato whitefly) to LC50 for B-biotype Bemisia tabaci (sweet potato whitefly)
[24] = tested on: Bemisia tabaci; assay: Resistant ratio, ratio of LC50 for T28 generation of B-biotype Bemisia tabaci (sweet potato whitefly) to LC50 for B-biotype Bemisia tabaci (sweet potato whitefly)

Work on `CC[C@H](C)[C@H]1O[C@]2(C=C[C@@H]1C)C[C@@H]1C[C@@H](C/C=C(\C)[C@@H](O[C@H]3C[C@H](OC)[C@@H](O[C@H]4C[C@H](OC)[C@@H](O)[C@H](C)O4)[C@H](C)O3)[C@@H](C)/C=C/C=C3\CO[C@@H]4[C@H](O)C(C)=C[C@@H](C(=O)O1)[C@]34O)O2.CO[C@H]1C[C@H](O[C@H]2[C@H](C)O[C@@H](O[C@@H]3/C(C)=C/C[C@@H]4C[C@@H](C[C@]5(C=C[C@H](C)[C@@H](C(C)C)O5)O4)OC(=O)[C@@H]4C=C(C)[C@@H](O)[C@H]5OC/C(=C\C=C\[C@@H]3C)[C@]54O)C[C@@H]2OC)O[C@@H](C)[C@@H]1O` [ABAMECTIN] yielded a RatioLC50 [1] of 5.33, an LC50 [2] of 0.64 µg/mL and an LC50 [3] of 0.12 µg/mL.

`C/C(=N\C#N)N(C)Cc1ccc(Cl)nc1` [ACETAMIPRID] was tested, and the RatioLC50 [1] was 35.8, the LC50 [2] was 70.9 µg/mL (≈ 318 µM) and the LC50 [3] was 1.98 µg/mL (≈ 8.89 µM).

Work on `CCCCN(CCCC)SN(C)C(=O)Oc1cccc2c1OC(C)(C)C2` [CARBOSULFAN] yielded a RatioLC50 [1] of 4.43, an LC50 [2] of 1960 µg/mL (≈ 5140 µM) and an LC50 [3] of 441 µg/mL (≈ 1160 µM).

For `CCOP(=S)(OCC)Oc1nc(Cl)c(Cl)cc1Cl` [CHLORPYRIFOS], the RatioLC50 [1] was 1.03, the LC50 [2] was 621 µg/mL (≈ 1770 µM) and the LC50 [3] was 601 µg/mL (≈ 1710 µM).

In the case of `CC1(C)[C@H](C(=O)O[C@H](C#N)c2cccc(Oc3ccccc3)c2)[C@@H]1C=C(Br)Br` [DELTAMETHRIN], the RatioLC50 [1] is reported as 1.16, the LC50 [2] is reported as 810 µg/mL (≈ 1600 µM) and the LC50 [3] is reported as 701 µg/mL (≈ 1390 µM).

`N#Cc1nn(-c2c(Cl)cc(C(F)(F)F)cc2Cl)c(N)c1[S+]([O-])C(F)(F)F` (stereo not drawn) [FIPRONIL] showed a RatioLC50 [1] of 1.08, an LC50 [2] of 4.45 µg/mL (≈ 10.2 µM) and an LC50 [3] of 4.11 µg/mL (≈ 9.4 µM).

Work on `O=[N+]([O-])/N=C1\NCCN1Cc1ccc(Cl)nc1` [IMIDACLOPRID] yielded a RatioLC50 [1] of 47.3, an LC50 [2] of 412 µg/mL (≈ 1610 µM) and an LC50 [3] of 8.72 µg/mL (≈ 34.1 µM).

`CCN(Cc1ccc(Cl)nc1)/C(=C/[N+](=O)[O-])NC` [NITENPYRAM] showed a RatioLC50 [1] of 9.99, an LC50 [2] of 22.2 µg/mL (≈ 82 µM) and an LC50 [3] of 2.22 µg/mL (≈ 8.2 µM).

Molecule `CN1COCN(Cc2cnc(Cl)s2)/C1=N\[N+](=O)[O-]` [THIAMETHOXAM] has a RatioLC50 [4] of 0.99, a RatioLC50 [5] of 2.37 and a RatioLC50 [6] of 3.14. For the same molecule, the RatioLC50 [7] was 0.95, the RatioLC50 [8] was 1 and the RatioLC50 [9] was 1.17. The LC50 [10] was 452 µg/mL, the LC50 [11] was 189 µg/mL and the LC50 [12] was 143 µg/mL. The LC50 [13] was 18.5 µg/mL, the LC50 [14] was 17.6 µg/mL and the LC50 [15] was 15 µg/mL. The RatioLC50 [1] was 25.6, the LC50 [2] was 450 µg/mL (≈ 1540 µM) and the LC50 [3] was 17.6 µg/mL (≈ 60.3 µM). The RatioLC50 [16] was 66.3, the RatioLC50 [17] was 25.6 and the LC50 [18] was 17.6 µg/mL (≈ 60.3 µM). The LC50 [19] was 169 µg/mL (≈ 579 µM), the LC50 [20] was 334 µg/mL (≈ 1140 µM) and the LC50 [21] was 451 µg/mL (≈ 1550 µM). For the same molecule, the LC50 [22] was 1160 µg/mL (≈ 3990 µM), the RatioLC50 [23] was 9.62 and the RatioLC50 [24] was 19.
